Source: ChEMBL document CHEMBL6103546, “TRPM8 and TRPA1 ideal targets for treating cold-induced pain” (Eur J Med Chem, 2025)
Each block holds one molecule with its values, some of them ahead of it.

Legend:
[1] = target: T1, Transient receptor potential cation channel subfamily A member 1 (Homo sapiens, UniProt O75762); assay: Antagonist activity at TRPA1 (unknown origin) transfected in HEK293F cells assessed as reduction in intracellular Ca2+ by fluorescence based assay; assay type: cell-based
[2] = target: T1, Transient receptor potential cation channel subfamily A member 1; assay: […] at human TRPA1 expressed in HEK293T cells assessed as inhibition of AITC-induced current by whole cell patch clamp analysis; assay type: cell-based
[3] = target: T1, Transient receptor potential cation channel subfamily A member 1; assay: Antagonist activity at TRPA1 (unknown origin) expressed in HEK293 cells assessed as inhibition of AITC-induced intracellular Ca2+ flux by fluorescence dye based assay; assay type: cell-based
[4] = target: T1, Transient receptor potential cation channel subfamily A member 1; assay: Antagonist activity at human TRPA1 expressed in CHO cells assessed as inhibition of AITC-induced intracellular Ca2+ flux by fluorescence dye based assay; assay type: cell-based
[5] = target: T1, Transient receptor potential cation channel subfamily A member 1; assay: Antagonist activity at recombinant TRPA1 (unknown origin) expressed in T-REx-293 cells assessed as inhibition of AITC-induced intracellular Ca2+ flux by patch clamp assay; assay type: cell-based
[6] = target: T2, Transient receptor potential cation channel subfamily M member 8 (Homo sapiens, UniProt Q7Z2W7); assay: Antagonist activity at human recombinant TRPM8 stably transfected in HEK293 cells assessed as inhibition of intracellular Ca2+ flux incubated for 60 mins by Fluo-4 dye based fluorescence assay; assay type: cell-based
[7] = target: T2, Transient receptor potential cation channel subfamily M member 8; assay: Antagonist activity at TRPM8 (unknown origin)
[8] = target: T2, Transient receptor potential cation channel subfamily M member 8; assay: Antagonist activity at human TRPM8 expressed in HEK293 cells; assay type: cell-based
[9] = target: Transient receptor potential cation channel subfamily M member 8 (Rattus norvegicus, UniProt Q8R455); assay: Antagonist activity at rat TRPM8 transfected in HEK293T cells assessed as reduction in intracellular Ca2+ level Fluo-4 dye based fluorescence assay; assay type: cell-based
[10] = target: T2, Transient receptor potential cation channel subfamily M member 8; assay: Antagonist activity at human TRPM8 transfected in HEK293T cells assessed as inhibition of intracellular Ca2+ level by Fluo-4 dye based fluorescence assay; assay type: cell-based
[11] = target: T2, Transient receptor potential cation channel subfamily M member 8; assay: Agonist activity at TRPM8 (unknown origin)
[12] = target: T2, Transient receptor potential cation channel subfamily M member 8; assay: Antagonist activity at TRPM8 (unknown origin) in HEK293T cells; assay type: cell-based

T2 sequence (Q7Z2W7 whole entry): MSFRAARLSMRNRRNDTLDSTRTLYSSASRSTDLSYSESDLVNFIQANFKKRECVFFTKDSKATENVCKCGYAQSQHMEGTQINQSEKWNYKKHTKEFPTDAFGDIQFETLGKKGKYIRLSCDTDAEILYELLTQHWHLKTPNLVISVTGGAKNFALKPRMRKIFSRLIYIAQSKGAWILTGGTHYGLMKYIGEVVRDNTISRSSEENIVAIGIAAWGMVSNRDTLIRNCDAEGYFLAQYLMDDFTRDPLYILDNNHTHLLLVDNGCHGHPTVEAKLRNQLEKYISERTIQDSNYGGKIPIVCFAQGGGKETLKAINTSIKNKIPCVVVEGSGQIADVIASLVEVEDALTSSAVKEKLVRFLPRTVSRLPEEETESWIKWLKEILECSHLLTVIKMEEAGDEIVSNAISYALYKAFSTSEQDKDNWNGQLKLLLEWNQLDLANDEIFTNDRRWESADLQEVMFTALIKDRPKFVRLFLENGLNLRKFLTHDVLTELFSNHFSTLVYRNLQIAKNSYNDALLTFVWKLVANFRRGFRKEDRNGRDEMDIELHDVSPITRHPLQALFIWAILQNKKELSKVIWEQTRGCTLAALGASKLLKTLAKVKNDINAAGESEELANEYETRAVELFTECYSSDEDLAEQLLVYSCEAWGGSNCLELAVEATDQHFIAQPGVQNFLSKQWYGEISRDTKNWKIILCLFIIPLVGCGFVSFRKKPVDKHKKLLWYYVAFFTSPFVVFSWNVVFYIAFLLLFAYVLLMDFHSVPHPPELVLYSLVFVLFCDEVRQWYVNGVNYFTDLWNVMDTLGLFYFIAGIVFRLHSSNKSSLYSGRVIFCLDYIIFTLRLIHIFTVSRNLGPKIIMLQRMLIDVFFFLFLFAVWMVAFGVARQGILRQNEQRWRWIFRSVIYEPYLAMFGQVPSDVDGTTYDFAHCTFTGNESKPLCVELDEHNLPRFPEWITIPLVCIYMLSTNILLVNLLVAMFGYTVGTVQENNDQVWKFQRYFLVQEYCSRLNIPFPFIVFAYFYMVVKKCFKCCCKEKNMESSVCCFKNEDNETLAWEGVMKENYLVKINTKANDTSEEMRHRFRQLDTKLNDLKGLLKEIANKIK
T1 sequence (O75762 whole entry): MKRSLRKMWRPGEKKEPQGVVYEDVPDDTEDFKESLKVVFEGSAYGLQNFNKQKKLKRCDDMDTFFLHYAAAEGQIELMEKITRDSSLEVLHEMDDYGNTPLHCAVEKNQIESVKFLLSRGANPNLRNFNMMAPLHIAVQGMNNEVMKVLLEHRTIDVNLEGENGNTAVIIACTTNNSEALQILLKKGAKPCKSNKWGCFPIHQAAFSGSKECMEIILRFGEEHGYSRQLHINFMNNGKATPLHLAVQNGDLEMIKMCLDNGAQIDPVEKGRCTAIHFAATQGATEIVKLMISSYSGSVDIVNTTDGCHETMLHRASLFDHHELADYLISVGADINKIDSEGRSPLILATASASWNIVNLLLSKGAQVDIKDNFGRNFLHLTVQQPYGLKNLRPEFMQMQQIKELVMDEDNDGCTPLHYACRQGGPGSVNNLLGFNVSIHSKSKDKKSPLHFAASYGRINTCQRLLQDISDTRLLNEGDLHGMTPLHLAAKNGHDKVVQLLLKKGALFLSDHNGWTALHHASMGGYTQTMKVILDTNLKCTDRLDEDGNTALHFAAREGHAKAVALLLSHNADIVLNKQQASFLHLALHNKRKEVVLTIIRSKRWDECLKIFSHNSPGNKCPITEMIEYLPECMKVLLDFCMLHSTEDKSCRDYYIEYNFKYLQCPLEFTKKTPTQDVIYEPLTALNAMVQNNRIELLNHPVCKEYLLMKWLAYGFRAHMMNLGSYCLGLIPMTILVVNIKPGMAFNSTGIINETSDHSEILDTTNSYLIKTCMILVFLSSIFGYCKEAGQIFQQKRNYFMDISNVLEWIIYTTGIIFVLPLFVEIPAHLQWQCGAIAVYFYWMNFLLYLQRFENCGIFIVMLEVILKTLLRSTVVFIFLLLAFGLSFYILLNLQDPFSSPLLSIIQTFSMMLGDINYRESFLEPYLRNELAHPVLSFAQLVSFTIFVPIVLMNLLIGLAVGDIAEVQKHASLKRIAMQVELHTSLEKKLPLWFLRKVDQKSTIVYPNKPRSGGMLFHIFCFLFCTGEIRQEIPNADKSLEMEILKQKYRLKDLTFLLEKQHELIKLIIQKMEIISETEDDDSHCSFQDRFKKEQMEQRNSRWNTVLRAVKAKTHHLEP
Chain of Transient receptor potential cation channel subfamily M member 8 (Rattus norvegicus, UniProt Q8R455) (Q8R455 whole entry): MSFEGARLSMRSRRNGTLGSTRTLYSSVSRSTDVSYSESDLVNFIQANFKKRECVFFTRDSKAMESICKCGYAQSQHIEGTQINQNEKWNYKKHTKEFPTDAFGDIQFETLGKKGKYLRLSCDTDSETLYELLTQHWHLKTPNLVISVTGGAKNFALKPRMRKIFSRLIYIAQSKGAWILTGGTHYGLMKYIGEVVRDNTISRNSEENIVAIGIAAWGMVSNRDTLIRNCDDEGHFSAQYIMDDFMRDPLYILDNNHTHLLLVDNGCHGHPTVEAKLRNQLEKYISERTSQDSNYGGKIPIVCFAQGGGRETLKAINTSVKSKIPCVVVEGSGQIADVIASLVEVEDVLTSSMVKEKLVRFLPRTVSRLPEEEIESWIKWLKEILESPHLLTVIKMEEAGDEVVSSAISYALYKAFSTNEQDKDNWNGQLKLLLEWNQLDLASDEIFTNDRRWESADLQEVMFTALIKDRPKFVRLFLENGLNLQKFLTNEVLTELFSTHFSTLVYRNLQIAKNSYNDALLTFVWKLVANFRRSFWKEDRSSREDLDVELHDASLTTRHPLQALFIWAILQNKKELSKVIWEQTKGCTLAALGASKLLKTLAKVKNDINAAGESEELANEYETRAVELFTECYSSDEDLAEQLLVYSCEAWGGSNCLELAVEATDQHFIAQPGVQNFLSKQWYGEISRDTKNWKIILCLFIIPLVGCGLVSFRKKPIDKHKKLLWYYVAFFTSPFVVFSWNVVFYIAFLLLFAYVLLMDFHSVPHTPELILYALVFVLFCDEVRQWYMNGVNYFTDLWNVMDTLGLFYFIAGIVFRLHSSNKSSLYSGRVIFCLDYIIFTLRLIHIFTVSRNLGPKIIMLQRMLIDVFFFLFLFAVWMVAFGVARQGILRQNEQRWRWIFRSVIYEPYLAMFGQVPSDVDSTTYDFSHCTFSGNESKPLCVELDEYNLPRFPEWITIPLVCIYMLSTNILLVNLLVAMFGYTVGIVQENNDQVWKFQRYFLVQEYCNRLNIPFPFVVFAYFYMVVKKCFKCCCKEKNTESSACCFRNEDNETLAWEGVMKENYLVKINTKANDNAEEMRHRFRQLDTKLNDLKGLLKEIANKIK

Structure (SMILES): C[n+]1cc2c3c(ccc2c2ccc4cc5c(cc4c21)OCO5)OCO3
EC50 [2]: 40 nM

Structure (SMILES): C[C@@H](N)[C@@H](O)CCCCCCCCCCCCCCCCCCCCCCCC[C@H](O)[C@@H](C)N
EC50 [3]: 2600 nM

Structure (SMILES): C[C@@H]1C(=O)N(C[C@@H](Cc2ccccc2)N(Cc2ccccc2)Cc2ccccc2)[C@]1(Cc1ccccc1)C(=O)OCc1ccccc1
IC50 [6]: 300 nM
IC50 [7]: 300 nM

Structure (SMILES): C[C@H]1C(=O)N(C[C@@H](Cc2ccccc2)N(Cc2ccccc2)Cc2ccccc2)[C@@]1(Cc1ccccc1)C(=O)OCc1ccccc1
IC50 [6]: 20 nM
IC50 [8]: 50 nM
IC50 [7]: 20 nM

Structure (SMILES): C[C@H]1C(=O)N(C[C@H](Cc2ccccc2)N(Cc2ccccc2)Cc2ccccc2)[C@@]1(Cc1ccccc1)C(=O)OCc1ccccc1
IC50 [7]: 700 nM

Structure (SMILES): O=C(N[C@H](Cn1nccn1)C(F)(F)CO)c1cccc(F)c1-c1cc(-c2ccc(F)cc2)[nH]n1
IC50 [9]: 22.4 nM
IC50 [10]: 25.3 nM

Structure (SMILES): C[C@@H]1C(=O)N(C[C@H](Cc2ccccc2)N(Cc2ccccc2)Cc2ccccc2)[C@]1(Cc1ccccc1)C(=O)OCc1ccccc1
IC50 [7]: 3100 nM

Structure (SMILES): c1cc2c(cc1[C@H]1OC[C@H]3[C@@H]1CO[C@@H]3c1ccc3c(c1)OCO3)OCO2 [SESAMIN]
IC50 [12]: 9780 nM

The remaining lines, values ahead:

EC50 [1]: 45 nM
Structure (SMILES): COc1ccc(OC)c(NC(=O)c2nnn(Cc3ccc(Br)cc3F)c2N)c1

IC50 [4]: 1.7 nM
Structure (SMILES): C[C@H]1[C@H](F)C[C@@H](C(=O)NCc2cc(-c3cnc(C(F)(F)F)nc3)ncc2C(F)(F)F)N1S(=O)(=O)c1ccc(F)cc1

IC50 [5]: 130 nM
Structure (SMILES): CCN(c1cccc(C)c1)S(=O)(=O)c1nnc(NC(=O)c2ccccc2)s1

EC50 [11]: 5 nM
Structure (SMILES): O=C1NC(c2cccc([N+](=O)[O-])c2)=CCN1c1ccccc1O [ICILLIN]
